In patent US20060258571A1, “Antibacterial ester macrocycles” (priority 2002, published 2006) one finds IC50 and MIC data, which are given here for three compounds.

Where a name gives a salt, the structure may show the parent alone.

The subject of assay [1] is S. aureus 133 Translation. Put plainly: In vitro transcription-translation with S. aureus extracts. Type of assay: biochemical. As to conditions: S30 extract, plasmid p1a template, firefly luciferase, 30° C. 60 min. From the text: (§1) In Vitro Transcription-Translation with S. aureus Extracts
(§2) Construction of an S. aureus Luciferase Reporter Plasmid
(§3) A reporter plasmid which can be used in an in vitro transcription-translation assay for S. aureus is constructed by using the plasmid pBESTluc (Promega Corporation, USA). The E. coli tac promoter present in this plasmid in front of the firefly luciferase is replaced by the capA1 promoter with appropriate Shine-Dalgarno sequence from S. aureus. The primers CAPFor 5′-CGGCCAAGCTTACTCGGAT-[…] […]-3′ and CAPRev 5′-[…]-3′ are used for this. The primer CAPFor contains the capA1 promoter, the ribosome binding site and the 5′ region of the luciferase gene. After PCR using pBESTluc as template it is possible to isolate a PCR product which contains the firefly luciferase gene with the fused capA1 promoter. This is, after restriction with ClaI and HindIII, ligated into the vector pBESTluc which has likewise been digested with ClaI and HindIII. The resulting plasmid p1a is able to replicate in E. coli and be used as template in the S. aureus in vitro transcription-translation assay.
(§4) Preparation of S30 Extracts from S. aureus
(§5) Six liters of BHI medium are inoculated with a 250 ml overnight culture of an S. aureus strain and allowed to grow at 37° C. until the OD600 nm is 2-4. The cells are harvested by centrifugation and washed in 500 ml of cold buffer A (10 mM Tris acetate, pH 8.0, 14 mM Mg acetate, 1 mM DTT, 1 M KCl). After renewed centrifugation, the cells are washed in 250 ml of cold buffer A with 50 mM KCl, and the resulting pellets are frozen at −20° C. for 60 min. The pellets are thawed on ice in 30 to 60 min and taken up to a total volume of 99 ml in buffer B (10 mM Tris acetate, pH 8.0, 20 mM Mg acetate, 1 mM DTT, 50 mM KCl). 1.5 ml portions of lysostaphin (0.8 mg/ml) in buffer B are each introduced into 3 precooled centrifuge cups and each mixed with 33 ml of the cell suspension. The samples are incubated at 37° C., shaking occasionally, for 45 to 60 min, before 150 μl of a 0.5 M DTT solution are added. The lyzed cells are centrifuged at 30 000×g and 4° C. for 30 min. The cell pellet is taken up in buffer B and then centrifuged again under the same conditions, and the collected supernatants are combined. […]
(§6) Inhibition of protein biosynthesis of the compounds can be shown in an in vitro transcription-translation assay. […] The activity of the resulting luciferase can be detected by luminescence measurement. […]

For another assay, the system named is S. aureus 133. Nature of the assay: Minimum inhibitory concentration (MIC), liquid dilution test. As to conditions: minimal medium with 0.4% BH broth, 37° C., 18-24 h. It is filed as cell-based. An excerpt:
(§7) Determination of the Minimum Inhibitory Concentration (MIC):
(§8) The inhibitor concentration can in these cases be determined by standard microbiological methods (see, for example, The National Committee for Clinical Laboratory Standards. Methods for dilution antimicrobial susceptibility tests for bacteria that grow aerobically; approved standard-fifth edition. NCCLS document M7-A5 [ISBN 1-56238-394-9]. NCCLS, 940 West Valley Road, Suite 1400, Wayne, Pa. 19087-1898 USA, 2000). The MIC of the compounds of the invention is determined in the liquid dilution test on the 96-well microtiter plate scale. The bacterial microbes are cultivated in a minimal medium (18.5 mM Na2HPO4, 5.7 mM KH2PO4, 9.3 mM NH4Cl, 2.8 mM MgSO4, 17.1 mM NaCl, 0.033 μg/ml thiamine hydrochloride, 1.2 μg/ml nicotinic acid, 0.003 μg/ml biotin, 1% glucose, 25 μg/ml of each proteinogenic amino acid with the exception of phenylalanine; [H.-P. Kroll; unpublished]) with addition of 0.4% BH broth (test medium). In the case of Enterococcus faecalis ICB 27159, heat-inactivated fetal calf serum (FCS; GibcoBRL, Germany) is added to the test medium in a final concentration of 10%. Overnight cultures of the test microbes are diluted to an OD578 of 0.001 (to 0.01 in the case of Enterococci) in fresh test medium, and incubated 1:1 with dilutions of the test substances (1:2 dilution steps) in test medium (150 μl final volume). The cultures are incubated at 37° C. for 18-24 hours; Enterococci in the presence of 5% CO2.
(§9) The lowest substance concentration in each case at which bacterial growth was no longer visible is defined as the MIC. […] The compounds show a graded antibacterial effect against most of the test microbes.

Assay [2] concerns S. aureus RN4220 Translation. Nature of the assay: In vitro transcription-translation with S. aureus extracts. It is filed as biochemical. Conditions: S30 extract, plasmid p1a template, firefly luciferase, 30° C. 60 min.
Text: as §1, §2, §3, §4, §5, §6

Assay [3] concerns Enterococcus faecalis ICB 27159. Put plainly: Minimum inhibitory concentration (MIC), liquid dilution test. As to conditions: ICB27159, test medium with 10% heat-inactivated FCS, 5% CO2, 37° C., 18-24 h, read-out: MIC E. faecalis ICB 27159. It is filed as cell-based.
Text: as §7, §8, §9

A further assay has as its system S. aureus 25701. Described as above. It is filed as cell-based. As to conditions: Staphylococcus aureus, minimal medium with 0.4% BH broth, 37° C., 18-24 h.
Text: as §7, §8, §9

In a further assay the test system is S. aureus RN4220. The description is as above. It is filed as cell-based. Conditions: Staphylococcus aureus, minimal medium with 0.4% BH broth, 37° C., 18-24 h.
Text: as §7, §8, §9

The subject of a further assay is B. catarrhalis M3. The assay is described as above. Type of assay: cell-based. As to conditions: Moraxella catarrhalis, minimal medium with 0.4% BH broth, 37° C., 18-24 h.
Text: as §7, §8, §9

For assay [4], the system named is E. coli MRE600 Translation. Nature of the assay: In vitro transcription-translation with E. coli extracts. It is filed as biochemical, Escherichia coli. Conditions: S30 extract, pBESTLuc template, firefly luciferase, 30° C. 60 min. As to the method:
In Vitro Transcription-Translation with E. coli Extracts
An S30 extract is prepared by harvesting logarithmically growing Escherichia coli MRE 600 (M. Müller; University Freiburg), washing and employing them as described for the in vitro transcription-translation assay (Müller, M. and Blobel, G. Proc Natl Acad Sci USA (1984) 81, pp. 7421-7425).
1 μl of cAMP (11.25 mg/ml) are additionally added per 50 μl of reaction mix to the reaction mix for the in vitro transcription-translation assay. The assay mixture amounts to 105 μl, with 5 μl of the substance to be tested being introduced in 5% strength DMSO. 1 μg/100 pt of mixture of the plasmid pBESTLuc (Promega, Germany) are used as transcription template. After incubation at 30° C. for 60 min, 50 pt of luciferin solution (20 mM tricine, 2.67 mM MgSO4, 0.1 mM EDTA, 33.3 mM DTT pH 7.8, 270 μM CoA, 470 μM luciferin, 530 μM ATP) are added, and the resulting bioluminescence is measured in a luminometer for 1 minute. The IC50 is indicated by the concentration of an inhibitor which leads to 50% inhibition of the translation of firefly luciferase.

With “2-Aminoethyl-(8S,11S,14S)-14-amino-11-[(2R)-3-amino-2-hydroxypropyl]-5,17-dihydroxy-9-methyl-10,13-dioxo-9,12-diazatricyclo[14.3.1.1^2,6]henicosa-1(20),2(21),3,5,16,18-hexaene-8-carboxylate trihydrochloride [Example 10]”, in assay [1], the IC50 was 700 nM. This compound also registered an MIC in the assay on S. aureus 133 of 3.1 µM.
On to `COC(=O)[C@@H]1Cc2cc(ccc2O)-c2ccc(O)c(c2)C[C@H](N)C(=O)N[C@@H](C[C@@H](O)CN)C(=O)N1` [Example 1, Methyl(8S,11S,14S)-14-amino-11-[(2R)-3-amino-2-hydroxypropyl]-5,17-dihydroxy-10,13-dioxo-9,12-diazatricyclo[14.3.1.1^2,6]henicosa-1(20),2(21),3,5,16,18-hexaene-8-carboxylate dihydrochloride], for which the IC50 is 1700 nM in assay [2], 500 to 3000 nM in assay [1] and 500 nM in assay [4]. In addition, the MIC was found to be 1.56 µM in assay [3]; 3.13 µM against S. aureus 133 (Staphylococcus aureus, 133); 12.5 µM against S. aureus 25701; 0.4 µM in the assay with S. aureus RN4220; 1.56 µM in the assay with B. catarrhalis M3.
Take `CCOC(=O)[C@@H]1Cc2cc(ccc2O)-c2ccc(O)c(c2)C[C@H](N)C(=O)N[C@@H](C[C@@H](O)CN)C(=O)N1` [Example 2, Ethyl(8S,11S,14S)-14-amino-11-[(2R)-3-amino-2-hydroxypropyl]-5,17-dihydroxy-10,13-dioxo-9,12-diazatricyclo[14.3.1.1^2,6]henicosa-1(20),2(21),3,5,16,18-hexaene-8-carboxylate dihydrochloride]: the 50% inhibitory concentration (IC50) was 2400 to 4300 nM in assay [1] and 200 nM in assay [4]. Also, the minimal inhibitory concentration (MIC) with S. aureus 133 (Staphylococcus aureus, 133) worked out at 0.78 µM; against B. catarrhalis M3, 6.25 µM.

What is called IC50 is the concentration that gives 50% inhibition. A lower IC50 goes with greater potency in that assay. As usually defined, the MIC is the lowest concentration that inhibits growth of the organism.
